{"source": "patent EP2505659A1", "about": "“Methods for the identification of dioxygenase interacting molecules and for the purification of dioxygenase proteins” (CELLZOME AG, priority 2011, dated 2012)", "key": {"LEPREL2": {"target": "T1, LEPREL2 (Homo sapiens, UniProt Q8IVL6)", "T1 construct": "capturing and identification of dioxygenases from nuclear protein extracts; endogenous in cells", "T1 sequence (Q8IVL6 21-736)": "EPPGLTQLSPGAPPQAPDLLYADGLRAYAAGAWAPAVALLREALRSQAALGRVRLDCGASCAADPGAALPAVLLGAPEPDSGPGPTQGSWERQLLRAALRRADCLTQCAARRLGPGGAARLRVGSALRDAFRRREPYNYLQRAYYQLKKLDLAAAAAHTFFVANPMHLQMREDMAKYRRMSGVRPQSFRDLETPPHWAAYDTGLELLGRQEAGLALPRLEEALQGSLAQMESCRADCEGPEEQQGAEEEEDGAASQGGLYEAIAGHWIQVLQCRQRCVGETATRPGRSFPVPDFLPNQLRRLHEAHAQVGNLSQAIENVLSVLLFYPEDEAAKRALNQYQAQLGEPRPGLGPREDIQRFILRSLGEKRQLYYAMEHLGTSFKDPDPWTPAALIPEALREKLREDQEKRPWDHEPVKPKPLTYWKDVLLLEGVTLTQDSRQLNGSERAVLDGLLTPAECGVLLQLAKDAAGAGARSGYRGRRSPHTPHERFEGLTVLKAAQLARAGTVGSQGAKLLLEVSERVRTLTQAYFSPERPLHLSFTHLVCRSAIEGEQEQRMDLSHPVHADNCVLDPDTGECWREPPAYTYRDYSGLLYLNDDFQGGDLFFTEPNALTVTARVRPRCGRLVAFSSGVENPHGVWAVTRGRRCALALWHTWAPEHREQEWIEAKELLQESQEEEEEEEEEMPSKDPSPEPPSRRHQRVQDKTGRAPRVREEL", "assay": "Bead competition binding assay, immobilized compound A, K-562, HL-60 and Jurkat nuclear lysates", "settings": "100 µM free compound A, read-out: Fold change versus DMSO control", "source_text": "(§1) K562 cells were also purchased from DSMZ (Braunschweig, Germany).\n(§2) Table 5: Peptide elution off the LC system"}, "PLOD1": {"target": "T2, PLOD1 (Homo sapiens, UniProt Q02809)", "T2 construct": "capturing and identification of dioxygenases from nuclear protein extracts; endogenous in cells", "T2 sequence (Q02809 19-727)": "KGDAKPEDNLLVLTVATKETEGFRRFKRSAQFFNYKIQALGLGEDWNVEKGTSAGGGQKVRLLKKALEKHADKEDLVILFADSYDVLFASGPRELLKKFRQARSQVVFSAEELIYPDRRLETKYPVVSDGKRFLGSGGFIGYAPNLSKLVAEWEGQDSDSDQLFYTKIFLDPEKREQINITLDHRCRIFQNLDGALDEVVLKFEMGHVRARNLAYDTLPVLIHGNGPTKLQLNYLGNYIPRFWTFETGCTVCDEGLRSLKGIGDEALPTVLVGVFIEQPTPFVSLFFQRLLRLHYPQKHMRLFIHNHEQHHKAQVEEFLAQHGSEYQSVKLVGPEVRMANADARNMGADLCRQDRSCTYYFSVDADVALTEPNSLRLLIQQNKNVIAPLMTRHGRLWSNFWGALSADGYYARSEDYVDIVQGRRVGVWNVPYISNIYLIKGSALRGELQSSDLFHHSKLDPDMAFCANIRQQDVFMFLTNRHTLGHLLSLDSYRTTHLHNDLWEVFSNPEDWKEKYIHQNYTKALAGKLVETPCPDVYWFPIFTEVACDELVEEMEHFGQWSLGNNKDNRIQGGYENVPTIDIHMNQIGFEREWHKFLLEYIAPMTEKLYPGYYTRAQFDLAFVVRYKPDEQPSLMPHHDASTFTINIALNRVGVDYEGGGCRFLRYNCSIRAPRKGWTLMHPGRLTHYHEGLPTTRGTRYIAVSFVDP", "assay": "Bead competition binding assay, immobilized compound A, K-562, HL-60 and Jurkat nuclear lysates", "settings": "100 µM free compound A, read-out: Fold change versus DMSO control", "source_text": "as §1, §2"}}, "note": "Where a name gives a salt, the structure may show the parent alone. Read-outs that look alike come from different tables or passages of the source.", "data": [{"smiles": "O=C(O)CNC(=O)C1C(=O)OC2(CCNCC2)OC1=O", "note": "[compound A, 2-(2,4-dioxo-1,5-dioxa-9-azaspiro[5.5]undecane-3-carboxamido)acetic acid hydrochloride]", "values": [{"measurement": "remaining binding at 100 µM", "setting": "LEPREL2; Jurkat nuclear lysate", "value": 9, "unit": "%"}, {"measurement": "remaining binding at 100 µM", "setting": "LEPREL2; K-562 nuclear lysate", "value": 25, "unit": "%"}, {"measurement": "remaining binding at 100 µM", "setting": "PLOD1; Jurkat nuclear lysate", "value": 91, "unit": "%"}, {"measurement": "remaining binding at 100 µM", "setting": "PLOD1; K-562 nuclear lysate", "value": 35, "unit": "%"}]}]}
